Measured values: patent US20110190227A1, “Antagonists of Prostaglandin D2 Receptors” (Amira Pharmaceuticals, Inc., priority 2008, published 2011)

Legend:
human DP2 receptor = biological target: T1, human DP2 receptor (Homo sapiens, UniProt Q9Y5Y4); assay: DP2/CRTH2 radioligand binding assay ([3H]PGD2); conditions: membranes of HEK293 cells expressing recombinant human DP2, 1 nM [3H]PGD2; read-out: hDP2
T1 construct: expressed in transfected cells
T1 sequence (Q9Y5Y4 1-395): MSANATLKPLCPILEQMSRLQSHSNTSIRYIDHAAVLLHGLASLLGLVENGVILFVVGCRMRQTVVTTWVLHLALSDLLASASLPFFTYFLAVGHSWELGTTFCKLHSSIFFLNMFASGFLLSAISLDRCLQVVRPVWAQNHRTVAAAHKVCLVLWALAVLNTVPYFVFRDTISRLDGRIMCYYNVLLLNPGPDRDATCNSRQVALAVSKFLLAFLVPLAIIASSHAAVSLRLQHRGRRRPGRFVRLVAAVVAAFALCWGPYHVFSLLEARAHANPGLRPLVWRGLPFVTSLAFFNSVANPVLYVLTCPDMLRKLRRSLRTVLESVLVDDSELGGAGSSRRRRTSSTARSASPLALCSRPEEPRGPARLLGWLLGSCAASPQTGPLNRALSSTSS
Experimental: The ability of a compound to bind to the human DP2 receptor is assessed via a radioligand binding assay using [^3H]PGD2. HEK293 cells stably expressing recombinant human DP2 are resuspended in 10 mM Hepes, 7.4 containing 1 mM DTT, lysed and centrifuged at 75,000×g to pellet the membranes. The membranes are resuspended in 10 mM Hepes, 7.4 containing 1 mM DTF and 10% glycerol to approximately 5 mg protein/ml. Membranes (2-10 […]) are incubated in 96-well plates with 1 nM [^3H]PGD2 and test compound in Assay Buffer (50 mM Hepes, 10 mM MnCl2, 1 mM EDTA, plus or minus 0.2% human serum albumin, pH 7.4) for 60 minutes at room temperature. The reactions are terminated by rapid filtration through Whatman GF/C glass fibre filter plates. The filter plates were pre-soaked in 0.33% polythylenimine for 30 minutes at room temperature then washed in Wash Buffer (50 mM Hepes, 0.5 M NaCl pH 7.4) prior to harvesting. After harvesting, the filter plates are washed 3 times with 1 ml cold Wash Buffer then dried. Scintillant is then added to the plates and the radioactivity retained on the filters is determined on a Packard TopCount (Perkin Elmer). Specific binding is determined as total radioactive binding minus non-specific binding in the presence of 10 μM PGD2. IC50s were determined using GraphPad prism analysis of drug titration curves.

human DP1 receptor = biological target: T2, human DP1 receptor (Homo sapiens, UniProt Q13258); assay: DP1 radioligand membrane binding assay ([3H]BWA868C); conditions: human platelet membranes, 2 nM [3H]BWA868C; read-out: hDP1
T2 construct: tissue Biological Specialty Corporation; host or cells: human platelets, membrane preparation
T2 sequence (Q13258 1-359): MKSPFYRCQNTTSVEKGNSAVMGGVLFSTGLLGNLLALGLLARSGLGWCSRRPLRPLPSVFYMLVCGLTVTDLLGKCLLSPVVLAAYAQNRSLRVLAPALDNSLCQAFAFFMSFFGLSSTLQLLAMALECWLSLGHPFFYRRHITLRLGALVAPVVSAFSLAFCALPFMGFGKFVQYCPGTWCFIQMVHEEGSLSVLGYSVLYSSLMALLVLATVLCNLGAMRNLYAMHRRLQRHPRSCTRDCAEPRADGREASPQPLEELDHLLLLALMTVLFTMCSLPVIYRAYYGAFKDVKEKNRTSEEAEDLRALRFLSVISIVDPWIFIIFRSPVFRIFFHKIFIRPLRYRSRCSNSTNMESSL
Experimental: The ability of a compound to bind to the human DP1 receptor was evaluated via a radioligand membrane binding assay using the DP1 selective synthetic ligand [^3H]BWA868C. Packed human platelets (Biological Specialty Corporation), were resuspended in 6 volumes of Hepes/HBSS buffer (10 mM Hepes, 1 mM DTT in Hanks Balanced Salt Solution (HBSS), lysed and centrifuged at 75,000×g to pellet the membranes. Membranes were resuspended in Hepes/HBSS buffer to approximately 12 mg protein/ml. Membranes (20 μg protein/well) are incubated in 96-well plates with 2 nM [^3H]BWA868C and test compound in Assay Buffer (50 mM Hepes, 10 mM MnCl2, 1 mM EDTA, plus or minus 0.2% human serum albumin, pH 7.4) for 60 minutes at room temperature. The reactions are terminated by rapid filtration through Whatman GF/C glass fibre filter plates. The filter plates were pre-soaked in 0.33% polyethylenimine for 30 minutes at room temperature then washed in Wash Buffer (50 mM Hepes, 0.5 M NaCl pH 7.4) prior to harvesting. After harvesting, the filter plates are washed 3 times with 1 ml cold Wash Buffer then dried. Scintillant is then added to the plates and the radioactivity retained on the filters is determined on a Packard TopCount (Perkin Elmer). Specific binding is determined as total radioactive binding minus non-specific binding in the presence of 10 μM BW A868C. IC50s were determined using GraphPad prism analysis of drug titration curves.

IC50 (human DP2 receptor)	IC50 (human DP1 receptor)	SMILES
< 0.3 µM	0.3 to 1 µM	O=C(O)Cc1cccc(Oc2ccc(Br)cc2CS(=O)(=O)Cc2ccccc2)c1 [Compound 1-21, [3-(4-Bromo-2-phenylmethanesulfonylmethyl-phenoxy)-phenyl]-acetic acid]
< 0.3 µM	> 1 µM	O=C(O)Cc1cccc(Oc2ccc(Br)cc2C[S+]([O-])c2ccc3ccccc3n2)c1 (centres unmarked) [Compound 1-32, {3-[4-Bromo-2-(quinoline-2-sulfinylmethyl)-phenoxy]-phenyl}-acetic acid]
< 0.3 µM	> 1 µM	O=C(O)Cc1cccc(Oc2ccc(Br)cc2C[S+]([O-])Cc2ccccc2)c1 (centres unmarked) [Compound 1-29, [3-(4-Bromo-2-phenylmethanesulfinylmethyl-phenoxy)-phenyl]-acetic acid]
< 0.3 µM	> 1 µM	COc1ccc(CC(=O)O)cc1Oc1ccc(C(F)(F)F)cc1C[S+]([O-])CCc1ccccc1 (centres unmarked) [Compound 1-8, {4-Methoxy-3-[2-(2-phenyl-ethanesulfinylmethyl)-4-trifluoromethyl-phenoxy]-phenyl}-acetic acid]
0.3 to 1 µM	> 1 µM	Cn1cc(-c2ccc(Oc3cccc(CC(=O)O)c3)c(CSc3ccccc3)c2)cn1 [Compound 1-57, {3-[4-(1-Methyl-1H-pyrazol-4-yl)-2-phenylsulfanylmethyl-phenoxy]-phenyl}-acetic acid]
0.3 to 1 µM	0.3 to 1 µM	O=C(O)Cc1cccc(Oc2ccc(Br)cc2CSc2ccccn2)c1 [Compound 1-17, {3-[4-Bromo-2-(pyridin-2-ylsulfanylmethyl)-phenoxy]-phenyl}-acetic acid]
> 1 µM	> 1 µM	O=C(O)Cc1cccc(Oc2ccc(Br)cc2C[S+]([O-])CC(=O)O)c1 (centres unmarked) [Compound 1-36, [3-(4-Bromo-2-carboxymethanesulfinylmethyl-phenoxy)-phenyl]-acetic acid]
< 0.3 µM	> 1 µM	COc1ccc(CC(=O)O)cc1Oc1ccc(C(F)(F)F)cc1C[S+]([O-])c1ccccc1 (centres unmarked) [Compound 1-10, [3-(2-Benzenesulfinylmethyl-4-trifluoromethyl-phenoxy)-4-methoxy-phenyl]-acetic acid]
> 1 µM	> 1 µM	CN(C)CCSCc1cc(Br)ccc1Oc1cccc(CC(=O)O)c1 [Compound 1-18, {3-[4-Bromo-2-(2-dimethylamino-ethylsulfanylmethyl)-phenoxy]-phenyl}-acetic acid]

Continued, compound first:

SMILES	IC50 (human DP2 receptor)	IC50 (human DP1 receptor)
COc1ccc(CC(=O)O)cc1Oc1ccc(C(F)(F)F)cc1CSCC(F)(F)F [Compound 1-2, {4-Methoxy-3-[2-(2,2,2-trifluoro-ethylsulfanylmethyl)-4-trifluoromethyl-phenoxy]-phenyl}-acetic acid]	< 0.3 µM	> 1 µM
O=C(O)Cc1cccc(Oc2ccc(Br)cc2CS(=O)(=O)c2ccc3ccccc3n2)c1 [Compound 1-24, {3-[4-Bromo-2-(quinoline-2-sulfonylmethyl)-phenoxy]-phenyl}-acetic acid]	> 1 µM	> 1 µM
O=C(O)Cc1cccc(Oc2ccc(Br)cc2CSc2ccc3ccccc3n2)c1 [Compound 1-16, {3-[4-Bromo-2-(quinolin-2-ylsulfanylmethyl)-phenoxy]-phenyl}-acetic acid]	0.3 to 1 µM	0.3 to 1 µM
O=C(O)Cc1cccc(Oc2ccc(Br)cc2C[S+]([O-])CCc2ccccc2)c1 (centres unmarked) [Compound 1-30, {3-[4-Bromo-2-(2-phenyl-ethanesulfinylmethyl)-phenoxy]-phenyl}-acetic acid]	< 0.3 µM	> 1 µM
COc1ccc(CC(=O)O)cc1Oc1ccc(Cl)cc1C[S+]([O-])Cc1ccccc1 (centres unmarked) [Compound 1-55, [3-(4-Chloro-2-phenylmethanesulfinylmethyl-phenoxy)-4-methoxyphenyl]-acetic acid]	0.3 to 1 µM	> 1 µM
Cc1nnc(S(=O)(=O)Cc2cc(Br)ccc2Oc2cccc(CC(=O)O)c2)s1 [Compound 1-26, {3-[4-Bromo-2-(5-methyl-[1,3,4]thiadiazole-2-sulfonylmethyl)-phenoxy]-phenyl}-acetic acid]	< 0.3 µM	> 1 µM
O=C(O)Cc1cccc(Oc2ccc(Br)cc2COc2ccccc2)c1 [Compound 1-37, [3-(4-Bromo-2-phenoxymethyl-phenoxy)-phenyl]-acetic acid]	> 1 µM	0.3 to 1 µM
Cc1nnc(SCc2cc(Br)ccc2Oc2cccc(CC(=O)O)c2)s1 [Compound 1-15, {3-[4-Bromo-2-(5-methyl-[1,3,4]thiadiazol-2-ylsulfanylmethyl)-phenoxy]-phenyl}-acetic acid]	< 0.3 µM	> 1 µM
O=C(O)Cc1cccc(Oc2ccc(Br)cc2C[S+]([O-])c2nccs2)c1 (centres unmarked) [Compound 1-33, {3-[4-Bromo-2-(thiazole-2-sulfinylmethyl)-phenoxy]-phenyl}-acetic acid]	< 0.3 µM	> 1 µM
O=C(O)Cc1cccc(Oc2ccc(Br)cc2CS(=O)(=O)c2ccccc2)c1 [Compound 1-20, [3-(2-Benzenesulfonylmethyl-4-bromo-phenoxy)-phenyl]-acetic acid]	< 0.3 µM	> 1 µM
O=C(O)Cc1cccc(Oc2ccc(Br)cc2CS(=O)(=O)c2ccccn2)c1 [Compound 1-23, {3-[4-Bromo-2-(pyridine-2-sulfonylmethyl)-phenoxy]-phenyl}-acetic acid]	0.3 to 1 µM	> 1 µM
CS(=O)(=O)c1ccc(-c2ccc(Oc3cccc(CC(=O)O)c3)c(CSc3ccccc3)c2)cc1 [Compound 1-58, [3-(4′-Methanesulfonyl-3-phenylsulfanylmethyl-biphenyl-4-yloxy)-phenyl]-acetic acid]	0.3 to 1 µM	< 0.3 µM
Cc1nnc([S+]([O-])Cc2cc(Br)ccc2Oc2cccc(CC(=O)O)c2)s1 (centres unmarked) [Compound 1-34, {3-[4-Bromo-2-(5-methyl-[1,3,4]thiadiazole-2-sulfinylmethyl)-phenoxy]-phenyl}-acetic acid]	< 0.3 µM	> 1 µM
